Measured values taken from US8940897B2, “1,3,4-oxadiazole and 1,3,4-thiadiazole β-lactamase inhibitors” (priority 2012, dated 2015).
Structures can show the parent of a compound that is named as a salt.

Key:
[1] = tested on: bacterial strains that express the class D cephalosporinase OXA-15; assay: Synergy MIC / standard BLI potentiation MIC assay, strains expressing OXA-15;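 note: more active means a lower MIC or sMIC than Avibactam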; assay type: cell-based, E. coli; settings: in the presence of a β-lactam; comparator Avibactam (CCC)
Experimental: (§1) Unless otherwise indicated, the activity of the BLI compounds can be described by the MIC value obtained from a Synergy MIC assay or a BLI potentiation assay (e.g as described herein), both of which are run in the presence of a β-lactam.
(§2) The experimental protocol was performed according to Clinical and Laboratory Standards Institute (CLSI) guidelines with modifications as described below (CLSI guidelines can be derived from the CLSI document M07-A9 published in January 2012: “Methods for Dilution Antimicrobial Susceptibility Tests for Bacteria That Grow Aerobically; Approved Standard-Ninth Edition”).
(§3) To prepare for MIC testing, frozen glycerol stocks of clinical isolates (Klebsiella pneumoniae, Eschericia coli, Enterobacter spp, Citrobacter spp, or Pseudomonas aeruginosa) were used to streak for isolated colonies on rich, non-selective, tryptic soy agar containing 5% sheep's blood (TSAB). Frozen glycerol stocks of laboratory engineered, isogenic E. coli strains, which contain cloned β-lactamase expressing plasmids were used to streak for isolated colonies on rich, selective LB agar supplemented with 25 μg/mL tetracycline to maintain the plasmid. All strains were incubated at 37° C. for 18-24 hrs.
(§4) On the day of testing, primary cultures were started by scraping off 5-10 colonies from the TSAB plates containing clinical strains or the tetracycline supplemented LB plates containing engineered strains. The clinical strain material was suspended in ˜5 mL of cation adjusted Mueller Hinton Broth (CAMHB) in 14 mL culture tubes. The engineered strain material was suspended in CAMHB (supplemented with 25 μg/mL tetracycline) in 14 mL culture tubes. All strains were incubated at 37° C. with aeration (200 rpm) for ˜2 hrs until the optical density at 600 nm (OD600) was ≧0.1.
(§5) The two compound components of the assay were each diluted in CAMHB and added to the 96-well broth microdilution assay plates. 50 μL of the β-lactam was added to each well of the assay plate in 2-fold dilutions with final concentrations ranging from 128 to 0.13 μg/mL. 25 μL of the BLI compound was added to all wells in the broth microdilution plates at a final concentration of 4 μg/mL. Inoculum cultures were prepared by standardizing the primary cultures to OD600=0.1 and then adding 20 μL of the adjusted primary culture per 1 mL CAMHB for clinical strains or CAMHB (supplemented with tetracycline at 100 μg/mL) for engineered strains, so that the final inoculum density was ˜10^5 colony forming units per milliliter. Diluted inoculum cultures were used to inoculate 25 μl, per well in 96-well broth microdilution assay plates. The final volume of each well was 100 μL and contained a β-lactam at different concentrations, a BLIcompound at 4 μg/mL concentration, the bacterial culture at an OD600 of approximately 0.001 and when necessary tetracycline at 25 μg/mL.
(§6) Plates were incubated for 18-20 hours at 37° C. with aeration (200 rpm). Following incubation, growth was confirmed visually placing plates over a viewing apparatus (stand with a mirror underneath) and then OD600 was measured using a SpectraMax 340PC384 plate reader (Molecular Devices, Sunnyvale, Calif.). Growth was defined as turbidity that could be detected with the naked eye or achieving minimum OD600 of 0.1. MIC values were defined as the lowest concentration producing no visible turbidity.
(§7) The synergy MIC (sMIC) assay determines the concentration of the BLI required to potentiate the activity of a fixed concentration of a β-lactam antibiotic against β-lactamase producing bacterial strains. The experimental protocol was performed according to Clinical and Laboratory Standards Institute (CLSI) guidelines with modifications as described below (CLSI guidelines can be derived from the CLSI document M07-A9 published in January 2012: “Methods for Dilution Antimicrobial Susceptibility Tests for Bacteria That Grow Aerobically; Approved Standard-Ninth Edition”). […]

[2] = tested on: bacterial strains that express KPC β-lactamases; assay: Synergy MIC / standard BLI potentiation MIC assay, strains expressing KPC β-lactamases; assay type: cell-based; settings: for at least one KPC strain and/or a better spectrum of activity against KPC strains than Avibactam; in the presence of a β-lactam
Experimental: as §1, §2, §3, §4, §5, §6, §7

| SMILES | activity against bacterial strains that express OXA-15 β-lactamase compared with Avibactam [1] | activity against bacterial strains that express KPC β-lactamase compared with Avibactam [2] |
| --- | --- | --- |
| N[C@H]1C[C@H](c2nnc([C@@H]3CC[C@@H]4CN3C(=O)N4OS(=O)(=O)O)o2)C1 [Compound 727, (2S,5R)-2-(5-((1r,3S)-3-aminocyclobutyl)-1,3,4-oxadiazol-2-yl)-7-oxo-1,6-diazabicyclo[3.2.1]octan-6-yl hydrogen sulfate] | more active than Avibactam | more active than Avibactam |
| N[C@H]1C[C@@H](Cc2nnc([C@@H]3CC[C@@H]4CN3C(=O)N4OS(=O)(=O)O)o2)C1 [Compound 728, (2S,5R)-2-(5-(((1s,3R)-3-aminocyclobutyl)methyl)-1,3,4-oxadiazol-2-yl)-7-oxo-1,6-diazabicyclo[3.2.1]octan-6-yl hydrogen sulfate] | more active than Avibactam | more active than Avibactam |
| N[C@@H]1CC[C@H](c2nnc([C@@H]3CC[C@@H]4CN3C(=O)N4OS(=O)(=O)O)o2)C1 [Compound 729, (2S,5R)-2-(5-((1S,3R)-3-aminocyclopentyl)-1,3,4-oxadiazol-2-yl)-7-oxo-1,6-diazabicyclo[3.2.1]octan-6-yl hydrogen sulfate] | more active than Avibactam | more active than Avibactam |
| N=C(N)NCC(O)Cc1nnc([C@@H]2CC[C@@H]3CN2C(=O)N3OS(=O)(=O)O)o1 (stereo partly drawn) [Compound 730, (2S,5R)-2-(5-(3-guanidino-2-hydroxypropyl)-1,3,4-oxadiazol-2-yl)-7-oxo-1,6-diazabicyclo[3.2.1]octan-6-yl hydrogen sulfate] | more active than Avibactam | more active than Avibactam |
| N=C(N)NC[C@@H](O)c1nnc([C@@H]2CC[C@@H]3CN2C(=O)N3OS(=O)(=O)O)o1 [Compound 731, (2S,5R)-2-(5-((R)-2-guanidino-1-hydroxyethyl)-1,3,4-oxadiazol-2-yl)-7-oxo-1,6-diazabicyclo[3.2.1]octan-6-yl hydrogen sulfate] | more active than Avibactam | more active than Avibactam |
| N=C(N)NC[C@H](O)c1nnc([C@@H]2CC[C@@H]3CN2C(=O)N3OS(=O)(=O)O)o1 [Compound 732, (2S,5R)-2-(5-((S)-2-guanidino-1-hydroxyethyl)-1,3,4-oxadiazol-2-yl)-7-oxo-1,6-diazabicyclo[3.2.1]octan-6-yl hydrogen sulfate] | more active than Avibactam | more active than Avibactam |
| CNCCCc1nnc([C@@H]2CC[C@@H]3CN2C(=O)N3OS(=O)(=O)O)o1 [Compound 734, (2S,5R)-2-(5-(3-(methylamino)propyl)-1,3,4-oxadiazol-2-yl)-7-oxo-1,6-diazabicyclo[3.2.1]octan-6-yl hydrogen sulfate] | more active than Avibactam | more active than Avibactam |
| NCCCCc1nnc([C@@H]2CC[C@@H]3CN2C(=O)N3OS(=O)(=O)O)o1 [Compound 735, (2S,5R)-2-(5-(4-aminobutyl)-1,3,4-oxadiazol-2-yl)-7-oxo-1,6-diazabicyclo[3.2.1]octan-6-yl hydrogen sulfate] | more active than Avibactam | more active than Avibactam |
| O=C1N2C[C@@H](CC[C@H]2c2nnc(CCNCCO)o2)N1OS(=O)(=O)O [Compound 736, (2S,5R)-2-(5-(2-((2-hydroxyethyl)amino)ethyl)-1,3,4-oxadiazol-2-yl)-7-oxo-1,6-diazabicyclo[3.2.1]octan-6-yl hydrogen sulfate] | more active than Avibactam | more active than Avibactam |
| CC(C)(N)Cc1nnc([C@@H]2CC[C@@H]3CN2C(=O)N3OS(=O)(=O)O)o1 [Compound 737, (2S,5R)-2-(5-(2-amino-2-methylpropyl)-1,3,4-oxadiazol-2-yl)-7-oxo-1,6-diazabicyclo[3.2.1]octan-6-yl hydrogen sulfate] | more active than Avibactam | more active than Avibactam |
| N=C(N)Nc1nnc([C@@H]2CC[C@@H]3CN2C(=O)N3OS(=O)(=O)O)o1 [Compound 738, (2S,5R)-2-(5-guanidino-1,3,4-oxadiazol-2-yl)-7-oxo-1,6-diazabicyclo[3.2.1]octan-6-yl hydrogen sulfate] | more active than Avibactam | more active than Avibactam |
| N=C(N)NC1(Cc2nnc([C@@H]3CC[C@@H]4CN3C(=O)N4OS(=O)(=O)O)o2)CC1 [Compound 739, (2S,5R)-2-(5-((1-guanidinocyclopropyl)methyl)-1,3,4-oxadiazol-2-yl)-7-oxo-1,6-diazabicyclo[3.2.1]octan-6-yl hydrogen sulfate] | more active than Avibactam | more active than Avibactam |
| O=C1N2C[C@@H](CC[C@H]2c2nnc([C@H]3[C@@H]4CNC[C@@H]43)o2)N1OS(=O)(=O)O [Compound 740, (2S,5R)-2-(5-(3-azabicyclo[3.1.0]hexan-6-yl)-1,3,4-oxadiazol-2-yl)-7-oxo-1,6-diazabicyclo[3.2.1]octan-6-yl hydrogen sulfate] | more active than Avibactam | more active than Avibactam |
| N=C(N)N1CC(Cc2nnc([C@@H]3CC[C@@H]4CN3C(=O)N4OS(=O)(=O)O)o2)C1 [Compound 741, (2S,5R)-2-(5-((1-carbamimidoylazetidin-3-yl)methyl)-1,3,4-oxadiazol-2-yl)-7-oxo-1,6-diazabicyclo[3.2.1]octan-6-yl hydrogen sulfate] | more active than Avibactam | more active than Avibactam |
| O=C1N2C[C@@H](CC[C@H]2c2nnc(CCC3CNC3)o2)N1OS(=O)(=O)O [Compound 742, (2S,5R)-2-(5-(2-(azetidin-3-yl)ethyl)-1,3,4-oxadiazol-2-yl)-7-oxo-1,6-diazabicyclo[3.2.1]octan-6-yl hydrogen sulfate] | more active than Avibactam | more active than Avibactam |
